# From ChEMBL document CHEMBL3885881, “DrugMatrix”
# Organism: Rattus norvegicus
# Assay: DrugMatrix - Regimen: Daily Repeat
# Type: toxicity, organism-based, Sprague-Dawley
# Set-up: regimen Daily Repeat, gender Male, age 6-8 weeks
# Details: in vivo, po, route oral GAVAGE, vehicle .5 % CMC; for ABSOLUTE BASOPHIL / ABSOLUTE EOSINOPHIL / ABSOLUTE LYMPHOCYTE / ABSOLUTE MONOCYTE / ABSOLUTE SEGMENTED NEUTROPHIL / BASOPHIL / EOSINOPHIL / ERYTHROCYTE COUNT / HEMATOCRIT / HEMOGLOBIN / LEUKOCYTE COUNT / LYMPHOCYTE / MEAN CORPUSCULAR HEMOGLOBIN / MEAN CORPUSCULAR HEMOGLOBIN CONCENTRATION / MEAN CORPUSCULAR VOLUME / MONOCYTE / NEUTROPHIL / NUCLEATED RED BLOOD CELLS / PLATELET COUNT: tissue Blood; for ALANINE AMINOTRANSFERASE / ALBUMIN / ALKALINE PHOSPHATASE / ASPARTATE AMINOTRANSFERASE / BLOOD UREA NITROGEN / CARBON DIOXIDE / CHLORIDE / CHOLESTEROL / CREATINE PHOSPHOKINASE / CREATININE / GLUCOSE / LACTATE DEHYDROGENASE / LIPASE / PHOSPHORUS / POTASSIUM / SODIUM / TOTAL BILIRUBIN / TOTAL PROTEIN / URIC ACID: tissue Plasma
# [1] = 100 mg/kg, 120 h, dose level Low, time 5 day
# [2] = 1500 mg/kg, 72 h, dose level High, time 3 day
# [3] = 1500 mg/kg, 120 h, dose level High, time 5 day
compound,measurement,setting,value
CO[C@H]1/C=C/O[C@@]2(C)Oc3c(C)c(O)c4c(c3C2=O)C2=NC3(CCN(CC(C)C)CC3)NC2=C(NC(=O)/C(C)=C\C=C\[C@H](C)[C@H](O)[C@@H](C)[C@@H](O)[C@@H](C)[C@H](OC(C)=O)[C@@H]1C)C4=O [RIFABUTIN],ABSOLUTE BASOPHIL,[1],0 CELLS/uL
same,ABSOLUTE EOSINOPHIL,[1],0 CELLS/uL
same,ABSOLUTE LYMPHOCYTE,[1],10855 CELLS/uL
same,ABSOLUTE MONOCYTE,[1],0 CELLS/uL
same,ABSOLUTE SEGMENTED NEUTROPHIL,[1],1111.67 CELLS/uL
same,BASOPHIL,[1],0%
same,EOSINOPHIL,[1],0%
same,ERYTHROCYTE COUNT,[1],5.53 x10E6/uL
same,HEMATOCRIT,[1],35%
same,HEMOGLOBIN,[1],13.9 G/DL
same,LEUKOCYTE COUNT,[1],11.97 x10E3/uL
same,LYMPHOCYTE,[1],90.67%
same,MEAN CORPUSCULAR HEMOGLOBIN,[1],25.2 pg
same,MEAN CORPUSCULAR HEMOGLOBIN CONCENTRATION,[1],39.77 G/DL
same,MEAN CORPUSCULAR VOLUME,[1],63.37 fL
same,MONOCYTE,[1],0%
same,NEUTROPHIL,[1],9.33%
same,NUCLEATED RED BLOOD CELLS,[1],0 /100WBC
same,PLATELET COUNT,[1],1189 x10E3/uL
same,ALANINE AMINOTRANSFERASE,[1],54.33 u/L
same,ALBUMIN,[1],4.2 G/DL
same,ALKALINE PHOSPHATASE,[1],319 u/L
same,ASPARTATE AMINOTRANSFERASE,[1],78.33 u/L
same,BLOOD UREA NITROGEN,[1],16.67 mg/dL
same,CARBON DIOXIDE,[1],24.67 mmol/L
same,CHLORIDE,[1],102.33 MEQ/L
same,CHOLESTEROL,[1],81.33 mg/dL
same,CREATINE PHOSPHOKINASE,[1],352 u/L
same,CREATININE,[1],0.18 mg/dL
same,GLUCOSE,[1],154.67 mg/dL
same,LACTATE DEHYDROGENASE,[1],179 u/L
same,LIPASE,[1],9.33 u/L
same,PHOSPHORUS,[1],12.83 mg/dL
same,POTASSIUM,[1],6.38 MEQ/L
same,SODIUM,[1],144.7 MEQ/L
same,TOTAL BILIRUBIN,[1],0.23 mg/dL
same,TOTAL PROTEIN,[1],6 G/DL
same,URIC ACID,[1],1.6 mg/dL
same,ABSOLUTE BASOPHIL,[2],0 CELLS/uL
same,ABSOLUTE EOSINOPHIL,[2],0 CELLS/uL
same,ABSOLUTE LYMPHOCYTE,[2],11965.67 CELLS/uL
same,ABSOLUTE MONOCYTE,[2],420.67 CELLS/uL
same,ABSOLUTE SEGMENTED NEUTROPHIL,[2],2847 CELLS/uL
same,BASOPHIL,[2],0%
same,EOSINOPHIL,[2],0%
same,ERYTHROCYTE COUNT,[2],6.58 x10E6/uL
same,HEMATOCRIT,[2],40.53%
same,HEMOGLOBIN,[2],15.87 G/DL
same,LEUKOCYTE COUNT,[2],15.23 x10E3/uL
same,LYMPHOCYTE,[2],77.33%
same,MEAN CORPUSCULAR HEMOGLOBIN,[2],24.13 pg
same,MEAN CORPUSCULAR HEMOGLOBIN CONCENTRATION,[2],39.17 G/DL
same,MEAN CORPUSCULAR VOLUME,[2],61.6 fL
same,MONOCYTE,[2],2.67%
same,NEUTROPHIL,[2],20%
same,NUCLEATED RED BLOOD CELLS,[2],0 /100WBC
same,PLATELET COUNT,[2],1375.67 x10E3/uL
same,ALANINE AMINOTRANSFERASE,[2],80 u/L
same,ALBUMIN,[2],4.43 G/DL
same,ALKALINE PHOSPHATASE,[2],350.33 u/L
same,ASPARTATE AMINOTRANSFERASE,[2],113.67 u/L
same,BLOOD UREA NITROGEN,[2],14 mg/dL
same,CARBON DIOXIDE,[2],31 mmol/L
same,CHLORIDE,[2],96.33 MEQ/L
same,CHOLESTEROL,[2],148.67 mg/dL
same,CREATINE PHOSPHOKINASE,[2],217 u/L
same,CREATININE,[2],0.21 mg/dL
same,GLUCOSE,[2],160 mg/dL
same,LACTATE DEHYDROGENASE,[2],259 u/L
same,LIPASE,[2],11 u/L
same,PHOSPHORUS,[2],12.37 mg/dL
same,POTASSIUM,[2],5.97 MEQ/L
same,SODIUM,[2],145.43 MEQ/L
same,TOTAL BILIRUBIN,[2],0.47 mg/dL
same,TOTAL PROTEIN,[2],6.3 G/DL
same,URIC ACID,[2],1.7 mg/dL
same,ABSOLUTE BASOPHIL,[3],0 CELLS/uL
same,ABSOLUTE EOSINOPHIL,[3],0 CELLS/uL
same,ABSOLUTE LYMPHOCYTE,[3],11388 CELLS/uL
same,ABSOLUTE MONOCYTE,[3],273 CELLS/uL
same,ABSOLUTE SEGMENTED NEUTROPHIL,[3],2639 CELLS/uL
same,BASOPHIL,[3],0%
same,EOSINOPHIL,[3],0%
same,ERYTHROCYTE COUNT,[3],6.24 x10E6/uL
same,HEMATOCRIT,[3],38.2%
same,HEMOGLOBIN,[3],15.25 G/DL
same,LEUKOCYTE COUNT,[3],14.3 x10E3/uL
same,LYMPHOCYTE,[3],79%
same,MEAN CORPUSCULAR HEMOGLOBIN,[3],24.5 pg
same,MEAN CORPUSCULAR HEMOGLOBIN CONCENTRATION,[3],39.9 G/DL
same,MEAN CORPUSCULAR VOLUME,[3],61.45 fL
same,MONOCYTE,[3],2%
same,NEUTROPHIL,[3],19%
same,NUCLEATED RED BLOOD CELLS,[3],0 /100WBC
same,PLATELET COUNT,[3],1196.5 x10E3/uL
same,ALANINE AMINOTRANSFERASE,[3],114 u/L
same,ALBUMIN,[3],3.85 G/DL
same,ALKALINE PHOSPHATASE,[3],310.5 u/L
same,ASPARTATE AMINOTRANSFERASE,[3],198.5 u/L
same,BLOOD UREA NITROGEN,[3],19 mg/dL
same,CARBON DIOXIDE,[3],24.5 mmol/L
same,CHLORIDE,[3],97.5 MEQ/L
same,CHOLESTEROL,[3],104 mg/dL
same,CREATINE PHOSPHOKINASE,[3],397.5 u/L
same,CREATININE,[3],0.18 mg/dL
same,GLUCOSE,[3],120.5 mg/dL
same,LACTATE DEHYDROGENASE,[3],645 u/L
same,LIPASE,[3],12.5 u/L
same,PHOSPHORUS,[3],11 mg/dL
same,POTASSIUM,[3],5.77 MEQ/L
same,SODIUM,[3],142.7 MEQ/L
same,TOTAL BILIRUBIN,[3],0.6 mg/dL
same,TOTAL PROTEIN,[3],5.65 G/DL
same,URIC ACID,[3],1.35 mg/dL
